The target of this assay is human PCSK9 (Homo sapiens, UniProt Q8NBP7). As to the kind of experiment: PCSK9 ligand binding assay (TR-FRET): interference with binding of human PCSK9 to human LDLR. To be noted: for IC50: Human PCSK9 Alexa Fluor 647 / Human LDLR extracellular domain-Europium Kryptate; for Max % inhibition: efficacy (Amax), 100% = 1 uM unlabeled human PCSK9, 0% = DMSO. How it is done: Example 10: PCSK9 Ligand Binding Assay
The PCSK9 binding of the compounds of the disclosure were measured using a time resolved fluorescence resonance energy transfer (TR-FRET) assay. This time resolved fluorescence resonance energy transfer (TR-FRET) assay measures the ability of a compound of the present disclosure to interfere with the binding of human PCSK9 to human LDLR, providing measures of both potency (IC50) and efficacy (Amax).
Human PCSK9 Alexa Fluor 647
Human LDLR extracellular domain-Europium Kryptate
Proxi plate-low volume assay plate (PerkinElmer #6008280)
Greiner V-bottom (Greiner BioOne #781280)
Assay Buffer • 20 mM HEPES, pH 7.5 • 150 mM NaCl • 1 mM CaCl2 • 0.01% v/v Tween20 • 0.01% w/v BSA
A master compound plate was prepared in a Greiner V bottom plate by diluting compounds of the disclosure in dimethylsulfoxide to the correct concentration for the desired top concentration based on the desired final concentration: for a 30 uM final concentration the master plate concentration is 1.5 mM (68 uL DMSO+12 uL 10 mM of a compound of the disclosure), for a 10 uM final concentration the master plate concentration is 0.5 mM (76 uL DMSO+4 uL 10 mM of a compound of the disclosure), for a 3 uM final concentration the master plate concentration is 150 uM (69 uL DMSO+1 uL 10 mM of a compound of the disclosure). These solutions were pipetted into columns 1 and 11 of the compound plate. Threefold serial dilutions were generated in columns 2-10 and 12-20 of the compound plate by transferring 10 uL into 20 uL of DMSO. Columns 21 and 22 of the compound plate were negative controls containing DMSO alone.
An intermediate plate was generated in a Greiner V bottom plate by transferring 8 uL from each well of the master plate into a corresponding well containing 92 uL of assay buffer and mixing thoroughly.
A Proxi plate-low volume assay plate was used for the assay. To all wells of the plate was added 10 uL of 16 nM Human PCSK9 Alexa Fluor 647, followed by 5 uL from the intermediate plate. For the positive control wells in columns 23 and 24 of the plate, 5 uL of unlabeled human PCSK9 was added at 4 uM in assay buffer containing 8% DMSO. Following a 30 minute incubation, 5 uL of 4 nM Human LDLR extracellular domain-Europium Kryptate was added and the mixture was incubated for an additional 2 hours.
The TR-FRET signal was measured on an EnVision or PheraStar instrument with a 60 ms delay, 330 nm excitation and 665 nm emission (FRET), and 330 nm excitation and 615 nm (Europium). The FRET ratio (FRET/Europium) was used for calculations.
No inhibition (0%) was observed from the wells containing DMSO (Control) in columns 21 and 22 of the compound plate. Full inhibition (100%) was observed from the wells containing 1 uM human PCSK9 (Control) in columns 23 and 24 of the plate. Data is expressed as percent inhibition: (value—0%)/(100%-0%).

Sequence of human PCSK9 (Q8NBP7 153-692): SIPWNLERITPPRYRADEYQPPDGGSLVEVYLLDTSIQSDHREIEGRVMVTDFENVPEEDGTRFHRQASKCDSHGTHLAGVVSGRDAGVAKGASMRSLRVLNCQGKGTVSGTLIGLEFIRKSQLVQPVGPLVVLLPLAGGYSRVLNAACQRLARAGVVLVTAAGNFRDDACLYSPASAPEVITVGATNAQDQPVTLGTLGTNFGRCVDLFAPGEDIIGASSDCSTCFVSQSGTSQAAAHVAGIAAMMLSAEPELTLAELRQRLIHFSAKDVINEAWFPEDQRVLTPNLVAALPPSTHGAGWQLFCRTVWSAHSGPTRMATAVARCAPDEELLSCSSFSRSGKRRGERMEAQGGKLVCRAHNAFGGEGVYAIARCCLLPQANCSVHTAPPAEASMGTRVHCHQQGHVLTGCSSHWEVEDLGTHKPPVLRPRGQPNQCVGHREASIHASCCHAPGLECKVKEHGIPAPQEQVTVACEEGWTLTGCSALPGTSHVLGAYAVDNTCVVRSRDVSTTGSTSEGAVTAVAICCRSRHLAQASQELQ
Sequence of human PCSK9 (Q8NBP7 31-152 partner limits assumed): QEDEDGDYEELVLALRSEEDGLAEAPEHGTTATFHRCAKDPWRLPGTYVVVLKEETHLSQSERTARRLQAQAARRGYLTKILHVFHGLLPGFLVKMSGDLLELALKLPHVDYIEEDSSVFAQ

With `C[C@H]1C(=O)N[C@@H](CO)C(=O)N[C@@]2(Cc3ccc(Cl)cc3)CCCN(C2)C(=O)[C@H](CC(F)(F)F)CC(=O)N1Cc1c(F)cc(Cl)cc1Oc1ccc(-c2cnc(CN3CCCC3)n2C)cc1` [Compound 15, (3S, 7S, 10S, 13R)-6-(4-chloro-2-fluoro-6-(4-(1-methyl-2-(pyrrolidin-1-ylmethyl)-1H-imidazol-5-yl)phenoxy)benzyl)-13-(4-chlorobenzyl)-10-(hydroxymethyl)-7-methyl-3-(2,2,2-trifluoroethyl)-1,6,9,12-tetraazabicyclo[11.3.1]heptadecane-2,5,8,11-tetraone], the concentration for half-maximal inhibition (IC50) was determined as 0.342 nM and the Max % inhibition came out at 119.0%.
The like results for `C[C@H]1C(=O)N[C@@H](CO)C(=O)N[C@@]2(Cc3ccc(Cl)cc3)CCCN(C2)C(=O)[C@H]([C@H]2CCc3ncccc32)CC(=O)N1Cc1ccc(Cl)cc1Oc1ccc(-c2cnc(CN(C)C)n2C)cc1.Cl` [Compound 16, (3S, 7S, 10S, 13R)-6-(4-chloro-2-(4-(2-((dimethylamino)methyl)-1-methyl-1H-imidazol-5-yl)phenoxy)benzyl)-13-(4-chlorobenzyl)-3-((R)-6,7-dihydro-5H-cyclopenta[b]pyridin-5-yl)-10-(hydroxymethyl)-7-methyl-1,6,9,12-tetraazabicyclo[11.3.1]heptadecane-2,5,8,11-tetraone] were, in that order, 0.529 nM and 97.5%.
The like results for `COC[C@@H]1NC(=O)[C@H](C)N(Cc2ncc(Cl)cc2Oc2ccc(-c3cnc(CN(C)C)n3C)cc2)C(=O)C[C@@H](Cc2ccccc2)C(=O)N2CCC[C@@](Cc3ccc(Cl)cc3)(C2)NC1=O` [Compound 17, (3R, 7S, 10S, 13R)-3-benzyl-6-((5-chloro-3-(4-(2-((dimethylamino)methyl)-1-methyl-1H-imidazol-5-yl)phenoxy)pyridin-2-yl)methyl)-13-(4-chlorobenzyl)-10-(methoxymethyl)-7-methyl-1,6,9,12-tetraazabicyclo[11.3.1]heptadecane-2,5,8,11-tetraone] were, in that order, 0.327 nM and 102.6%.
The like results for `C[C@H]1C(=O)N[C@@H](CO)C(=O)N(C)[C@@]2(Cc3ccc(Cl)cc3)CCCN(C2)C(=O)[C@H](Cc2ccccn2)CC(=O)N1Cc1ccc(Cl)cc1Oc1ccc(-c2cnc(CN(C)C)n2C)cc1` [Compound 18, (3R,7S,10S,13R)-6-(4-Chloro-2-(4-(2-((dimethylamino)methyl)-1-methyl-1H-imidazol-5-yl)phenoxy)benzyl)-13-(4-chlorobenzyl)-10-(hydroxymethyl)-7,12-dimethyl-3-(pyridin-2-ylmethyl)-1,6,9,12-tetraazabicyclo[11.3.1]heptadecane-2,5,8,11-tetraone] were, in that order, 0.549 nM and 104.5%.
In the case of `C[C@H]1C(=O)N[C@@H](CO)C(=O)N[C@@]2(Cc3ccc(Cl)cc3)CCCN(C2)C(=O)[C@H](Cc2cccnc2)CC(=O)N1Cc1ccc(Cl)cc1Oc1ccc(-c2cnc(CN(C)C)n2C)cc1.Cl` [Compound 19, (3R,7S,10S,13R)-6-(4-chloro-2-(4-(2-((dimethylamino)methyl)-1-methyl-1H-imidazol-5-yl)phenoxy)benzyl)-13-(4-chlorobenzyl)-10-(hydroxymethyl)-7-methyl-3-(pyridin-3-ylmethyl)-1,6,9,12-tetraazabicyclo[11.3.1]heptadecane-2,5,8,11-tetraone hydrochloride], the concentration for half-maximal inhibition (IC50) was found to be 0.45 nM and the Max % inhibition turned out to be 105.3%.
The like results for `C[C@H]1C(=O)N[C@@H](CO)C(=O)N(C)[C@@]2(Cc3ccc(Cl)cc3)CCCN(C2)C(=O)[C@H](CC(F)(F)F)CC(=O)N1Cc1ccc(Cl)cc1Oc1ccc(-c2cnc(CN(C)C)n2C)cc1` [Compound 20, (3S, 7S, 10S, 13R)-6-(4-chloro-2-(4-(2-((dimethylamino)methyl)-1-methyl-1H-imidazol-5-yl)phenoxy)benzyl)-13-(4-chlorobenzyl)-10-(hydroxymethyl)-7,12-dimethyl-3-(2,2,2-trifluoroethyl)-1,6,9,12-tetraazabicyclo[11.3.1]heptadecane-2,5,8,11-tetraone] were, in that order, 0.187 nM and 117.5%.
The like results for `COC[C@@H]1NC(=O)[C@H](C)N(Cc2ccc(Cl)cc2Oc2ccc(-c3cnc(CN(C)C)n3C)cc2)C(=O)C[C@@H](Cc2ccccn2)C(=O)N2CCC[C@@](Cc3ccc(Cl)cc3)(C2)NC1=O` [Compound 21, (3R,7S,10S,13R)-6-(4-Chloro-2-(4-(2-((dimethylamino)methyl)-1-methyl-1H-imidazol-5-yl)phenoxy)benzyl)-13-(4-chlorobenzyl)-10-(methoxymethyl)-7-methyl-3-(pyridin-2-ylmethyl)-1,6,9,12-tetraazabicyclo[11.3.1]heptadecane-2,5,8,11-tetraone] were, in that order, 0.47 nM and 107.0%.
The like results for `COC[C@@H]1NC(=O)[C@H](C)N(Cc2c(F)cc(Cl)cc2Oc2ccc(-c3cnc(CN(C)C)n3C)cc2)C(=O)C[C@@H](CC(F)(F)F)C(=O)N2CCC[C@@](Cc3ccc(Cl)cc3)(C2)N(C)C1=O` [Compound 22, (3S,7S,10S,13R)-6-(4-Chloro-2-(4-(2-((dimethylamino)methyl)-1-methyl-1H-imidazol-5-yl)phenoxy)-6-fluorobenzyl)-13-(4-chlorobenzyl)-10-(methoxymethyl)-7,12-dimethyl-3-(2,2,2-trifluoroethyl)-1,6,9,12-tetraazabicyclo[11.3.1]heptadecane-2,5,8,11-tetraone] were, in that order, 0.159 nM and 101.9%.
Turning to `COC[C@@H]1NC(=O)[C@H](C)N(Cc2ccc(Cl)cc2Oc2ccc(-c3cnc(CN(C)C)n3C)cc2)C(=O)C[C@@H](Cc2cccnc2)C(=O)N2CCC[C@@](Cc3ccc(Cl)cc3)(C2)NC1=O.Cl` [Compound 23, (3R, 7S, 10S, 13R)-6-(4-chloro-2-(4-(2-((dimethylamino)methyl)-1-methyl-1H-imidazol-5-yl)phenoxy)benzyl)-13-(4-chlorobenzyl)-10-(methoxymethyl)-7-methyl-3-(pyridin-3-ylmethyl)-1,6,9,12-tetraazabicyclo[11.3.1]heptadecane-2,5,8,11-tetraone], the IC50 is 0.463 nM and the Max % inhibition amounted to 109.3%.
The like results for `COC[C@@H]1NC(=O)[C@H](C)N(Cc2ccc(Cl)cc2Oc2ccc(-c3cnc(CN(C)C)n3C)nc2)C(=O)C[C@@H](Cc2cccc(C)n2)C(=O)N2CCC[C@@](Cc3ccc(Cl)cc3)(C2)N(C)C1=O` [Compound 24, (3R, 7S, 10S, 13R)-6-(4-chloro-2-((6-(2-((dimethylamino)methyl)-1-methyl-1H-imidazol-5-yl)pyridin-3-yl)oxy)benzyl)-13-(4-chlorobenzyl)-10-(methoxymethyl)-7,12-dimethyl-3-((6-methylpyridin-2-yl)methyl)-1,6,9,12-tetraazabicyclo[11.3.1]heptadecane-2,5,8,11-tetraone] were, in that order, 0.277 nM and 115.7%.
The like results for `C[C@H]1C(=O)N[C@@H](CO)C(=O)N[C@@]2(Cc3ccc(Cl)cc3)CCCN(C2)C(=O)[C@H](Cc2ccccc2)CC(=O)N1Cc1ccc(Cl)c(F)c1Oc1ccc(-c2cnc(CN(C)C)n2C)cc1` [Compound 25, (3R, 7S, 10S, 13R)-3-benzyl-6-(4-chloro-2-(4-(2-((dimethylamino)methyl)-1-methyl-1H-imidazol-5-yl)phenoxy)-3-fluorobenzyl)-13-(4-chlorobenzyl)-10-(hydroxymethyl)-7-methyl-1,6,9,12-tetraazabicyclo[11.3.1]heptadecane-2,5,8,11-tetraone] were, in that order, 0.438 nM and 100.8%.
For `CC[C@@H]1CC(=O)N(Cc2ccc(Cl)cc2Oc2ccc(-c3cnc(CN4CCCC4)n3C)cc2)[C@@H](C)C(=O)N[C@@H](CO)C(=O)N[C@@]2(Cc3ccc(Cl)cc3)CCCN(C2)C1=O` [Compound 26, (3R, 7S, 10S, 13R)-6-(4-chloro-2-(4-(1-methyl-2-(pyrrolidin-1-ylmethyl)-1H-imidazol-5-yl)phenoxy)benzyl)-13-(4-chlorobenzyl)-3-ethyl-10-(hydroxymethyl)-7-methyl-1,6,9,12-tetraazabicyclo[11.3.1]heptadecane-2,5,8,11-tetraone], in that order: 0.48 nM and 98.3%.

As usually defined, the IC50 is the concentration that gives 50% inhibition.

The values are drawn from patent publication US11813306B2, “Cyclic tetramer compounds as proprotein convertase subtilisin/kexin type 9 (PCSK9) inhibitors for the treatment of metabolic disorders” (NOVARTIS AG, priority 2018, dated 2023).
